Format in all cases: biochemical
One test concerns the target GST-tagged SIK3 (Homo sapiens (Human), UniProt Q9Y2K2). In words: SIK3 inhibition test (ADP-Glo Max Assay). To be noted: enzyme 100 nM, AMARA Peptide 100 μM, ATP 1 mM, 2 hours room temperature. A digest of the protocol: (§1)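 GST-tagged human SIK1, SIK2 and SIK3 at 20 nM, 3 nM and 100 nM final in Tris pH 7.5 buffer, with AMARA peptide (200 μM for SIK1/SIK2, 100 μM for SIK3), 1 mM ATP and 5 mM MgCl2. Reaction ran 2 h at room temperature. ADP read by ADP-Glo Max luminescence, and IC50 fitted from 16 concentrations.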

The target in the next test is GST-tagged SIK2 (Homo sapiens (Human), UniProt Q9H0K1). In words: SIK2 inhibition test (ADP-Glo Max Assay). The following applies: enzyme 3 nM, AMARA Peptide 200 μM, ATP 1 mM, 2 hours room temperature. Summed up:
as §1

The target of the next test is GST-tagged SIK1 (Homo sapiens (Human), UniProt P57059). Kind of test: SIK1 inhibition test (ADP-Glo Max Assay). To be noted: enzyme 20 nM, AMARA Peptide 200 μM, ATP 1 mM, 2 hours room temperature. A digest of the protocol:
as §1

GST-tagged SIK2, sequence (Q9H0K1 whole entry): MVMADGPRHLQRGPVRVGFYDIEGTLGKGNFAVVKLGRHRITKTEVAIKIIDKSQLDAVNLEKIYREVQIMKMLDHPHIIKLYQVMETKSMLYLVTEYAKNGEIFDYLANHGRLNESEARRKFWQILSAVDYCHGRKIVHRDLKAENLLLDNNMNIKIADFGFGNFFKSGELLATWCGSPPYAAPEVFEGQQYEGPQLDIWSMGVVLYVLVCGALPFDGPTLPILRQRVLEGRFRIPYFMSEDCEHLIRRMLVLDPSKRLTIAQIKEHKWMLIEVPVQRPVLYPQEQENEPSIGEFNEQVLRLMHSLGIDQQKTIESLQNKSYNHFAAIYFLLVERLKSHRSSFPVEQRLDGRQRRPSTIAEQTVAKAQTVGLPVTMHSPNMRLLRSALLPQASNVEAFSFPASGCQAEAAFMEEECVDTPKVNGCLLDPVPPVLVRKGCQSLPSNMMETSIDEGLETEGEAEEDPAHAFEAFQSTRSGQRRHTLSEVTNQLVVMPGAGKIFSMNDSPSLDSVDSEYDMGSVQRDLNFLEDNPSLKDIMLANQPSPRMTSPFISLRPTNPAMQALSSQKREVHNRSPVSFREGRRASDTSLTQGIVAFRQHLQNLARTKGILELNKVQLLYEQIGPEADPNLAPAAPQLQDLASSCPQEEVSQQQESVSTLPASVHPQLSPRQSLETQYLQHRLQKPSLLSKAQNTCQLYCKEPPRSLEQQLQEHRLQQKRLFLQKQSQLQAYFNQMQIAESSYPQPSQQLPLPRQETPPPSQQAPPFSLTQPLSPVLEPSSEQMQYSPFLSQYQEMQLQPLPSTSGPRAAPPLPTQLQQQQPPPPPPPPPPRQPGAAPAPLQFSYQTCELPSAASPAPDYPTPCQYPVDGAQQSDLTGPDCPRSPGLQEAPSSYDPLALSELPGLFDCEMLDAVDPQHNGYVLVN
GST-tagged SIK1, sequence (P57059 whole entry): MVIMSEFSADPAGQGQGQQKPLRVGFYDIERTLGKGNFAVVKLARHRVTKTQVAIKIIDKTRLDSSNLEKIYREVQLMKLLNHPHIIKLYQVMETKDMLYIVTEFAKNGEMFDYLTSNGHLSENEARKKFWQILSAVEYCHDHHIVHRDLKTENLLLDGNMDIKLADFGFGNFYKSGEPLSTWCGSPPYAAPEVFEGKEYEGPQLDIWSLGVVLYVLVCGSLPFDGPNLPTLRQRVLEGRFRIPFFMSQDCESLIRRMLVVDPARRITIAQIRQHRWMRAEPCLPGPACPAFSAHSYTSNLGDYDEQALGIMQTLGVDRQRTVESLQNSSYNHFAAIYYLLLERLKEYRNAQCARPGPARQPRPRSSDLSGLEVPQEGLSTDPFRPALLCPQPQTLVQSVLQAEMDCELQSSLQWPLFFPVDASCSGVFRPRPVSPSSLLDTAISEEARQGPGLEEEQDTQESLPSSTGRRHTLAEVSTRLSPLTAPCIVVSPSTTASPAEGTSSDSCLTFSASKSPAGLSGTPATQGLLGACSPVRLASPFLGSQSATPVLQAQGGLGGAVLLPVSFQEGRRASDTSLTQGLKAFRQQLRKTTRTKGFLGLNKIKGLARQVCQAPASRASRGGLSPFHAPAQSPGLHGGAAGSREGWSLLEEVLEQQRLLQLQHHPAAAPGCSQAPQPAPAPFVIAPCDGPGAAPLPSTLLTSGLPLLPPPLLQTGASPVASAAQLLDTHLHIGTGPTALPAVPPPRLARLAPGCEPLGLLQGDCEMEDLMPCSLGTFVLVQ
GST-tagged SIK3, sequence (Q9Y2K2 whole entry): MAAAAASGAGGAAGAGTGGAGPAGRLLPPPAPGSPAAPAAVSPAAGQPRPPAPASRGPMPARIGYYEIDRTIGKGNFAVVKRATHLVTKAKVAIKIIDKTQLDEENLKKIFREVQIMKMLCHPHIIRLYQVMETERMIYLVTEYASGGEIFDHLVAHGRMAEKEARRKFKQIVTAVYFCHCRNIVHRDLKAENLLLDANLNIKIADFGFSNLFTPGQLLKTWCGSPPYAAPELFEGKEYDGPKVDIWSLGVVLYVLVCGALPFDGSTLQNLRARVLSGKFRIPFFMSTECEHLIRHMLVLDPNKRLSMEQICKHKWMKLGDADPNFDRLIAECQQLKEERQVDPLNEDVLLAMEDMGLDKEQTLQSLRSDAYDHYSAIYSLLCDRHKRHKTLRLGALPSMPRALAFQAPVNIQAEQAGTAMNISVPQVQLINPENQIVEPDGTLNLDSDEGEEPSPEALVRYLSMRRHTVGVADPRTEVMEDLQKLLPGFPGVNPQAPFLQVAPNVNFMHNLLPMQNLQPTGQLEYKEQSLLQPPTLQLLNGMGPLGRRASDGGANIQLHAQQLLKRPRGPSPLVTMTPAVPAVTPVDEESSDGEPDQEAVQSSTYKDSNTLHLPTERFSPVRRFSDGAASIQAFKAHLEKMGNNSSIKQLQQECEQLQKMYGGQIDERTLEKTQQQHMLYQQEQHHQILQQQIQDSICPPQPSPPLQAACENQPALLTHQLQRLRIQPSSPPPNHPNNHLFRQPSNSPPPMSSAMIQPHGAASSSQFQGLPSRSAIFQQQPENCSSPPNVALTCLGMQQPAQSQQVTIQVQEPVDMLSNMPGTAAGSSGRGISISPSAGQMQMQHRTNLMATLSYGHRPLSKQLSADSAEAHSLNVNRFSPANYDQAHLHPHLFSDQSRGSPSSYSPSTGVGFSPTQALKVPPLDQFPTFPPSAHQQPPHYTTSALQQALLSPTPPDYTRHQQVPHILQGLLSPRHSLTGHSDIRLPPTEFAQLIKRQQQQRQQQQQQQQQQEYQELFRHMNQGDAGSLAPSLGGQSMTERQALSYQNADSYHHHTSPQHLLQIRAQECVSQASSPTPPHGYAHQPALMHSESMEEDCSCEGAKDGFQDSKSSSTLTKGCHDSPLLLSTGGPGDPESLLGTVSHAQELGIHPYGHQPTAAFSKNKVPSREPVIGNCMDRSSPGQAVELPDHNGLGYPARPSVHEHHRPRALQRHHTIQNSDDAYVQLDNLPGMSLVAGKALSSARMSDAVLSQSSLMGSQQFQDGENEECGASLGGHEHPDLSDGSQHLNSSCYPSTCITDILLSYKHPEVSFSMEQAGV

`COc1cc(-c2c3c(C#N)cc(-c4cnn(C(C)C)c4)cc3nn2C)cc(OC(F)F)c1C(N)=O` [Example 132, 4-[4-cyano-2-methyl-6-(1-propan-2-ylpyrazol-4-yl)indazol-3-yl]-2-(difluoromethoxy)-6-methoxybenzamide]: the IC50 against GST-tagged SIK3 was determined as 5.8 nM; against GST-tagged SIK2, 4 nM; at GST-tagged SIK1 it was 16.1 nM.

`COCCn1cc(-c2cc(C#N)c3c(-c4cc(OC)c(C(N)=O)c(OC(F)F)c4)n(C)nc3c2)cn1` [Example 133, 4-[4-cyano-6-[1-(2-methoxyethyl)pyrazol-4-yl]-2-methylindazol-3-yl]-2-(difluoromethoxy)-6-methoxybenzamide]: the half-maximal inhibitory concentration (IC50) against GST-tagged SIK3 turned out to be 4.9 nM; against GST-tagged SIK2, 2.1 nM; against GST-tagged SIK1, 13.6 nM.

In the case of `COCCn1cc(-c2cc(C(F)F)c3c(-c4cc(OC)c(C(N)=O)c(OC(F)F)c4)n(C)nc3c2)cn1` [Example 134, 2-(difluoromethoxy)-4-[4-(difluoromethyl)-6-[1-(2-methoxyethyl)pyrazol-4-yl]-2-methylindazol-3-yl]-6-methoxybenzamide], the IC50 against GST-tagged SIK3 stood at 5.7 nM; on GST-tagged SIK2, 3.3 nM; on GST-tagged SIK1 it was 13.6 nM.

Consider `COc1cc(-c2c3c(C#N)cc(-c4cnn(CC(C)C)c4)cc3nn2C)cc(OC(F)F)c1C(N)=O` [Example 135, 4-[4-cyano-2-methyl-6-[1-(2-methylpropyl)pyrazol-4-yl]indazol-3-yl]-2-(difluoromethoxy)-6-methoxybenzamide], for which the IC50 against GST-tagged SIK3 came to 5.9 nM; against GST-tagged SIK2 it was 6.2 nM; against GST-tagged SIK1, 17.2 nM.

In the case of `CCOc1cc(-c2cnn(C)c2)cc2nn(C)c(-c3cc(OC)c(C(N)=O)c(OC(F)F)c3)c12` [Example 136, 2-(difluoromethoxy)-4-[4-ethoxy-2-methyl-6-(1-methylpyrazol-4-yl)indazol-3-yl]-6-methoxybenzamide], the half-inhibitory concentration (IC50) is 13.4 nM on GST-tagged SIK3, 3.4 nM on GST-tagged SIK2 and 7.6 nM against GST-tagged SIK1.

As for `COc1cc(-c2c3c(C#N)cc(-c4cnn(CCC5(O)CCC5)c4)cc3nn2C)cc(OC(F)F)c1C(N)=O` [Example 137, 4-[4-cyano-6-[1-[2-(1-hydroxycyclobutyl)ethyl]pyrazol-4-yl]-2-methylindazol-3-yl]-2-(difluoromethoxy)-6-methoxybenzamide], the half-maximal inhibitory concentration (IC50) against GST-tagged SIK3 was 4.7 nM; on GST-tagged SIK2, 5.8 nM; on GST-tagged SIK1, 11.6 nM.

As to `COc1cc(-c2c3c(C#N)cc(-c4cnn(CC5CC5)c4)cc3nn2C)cc(OC(F)F)c1C(N)=O` [Example 138, 4-[4-cyano-6-[1-(cyclopropylmethyl)pyrazol-4-yl]-2-methylindazol-3-yl]-2-(difluoromethoxy)-6-methoxybenzamide], the IC50 against GST-tagged SIK3 is 6.6 nM; against GST-tagged SIK2, 7.2 nM; against GST-tagged SIK1, 16.9 nM.

In the case of `CCn1cc(-c2cc(C#N)c3c(-c4cc(OC)c5c(c4)C(C)(C)CNC5=O)n(C)nc3c2)cn1` [Example 139, 6-(1-ethylpyrazol-4-yl)-3-(8-methoxy-4,4-dimethyl-1-oxo-2,3-dihydroisoquinolin-6-yl)-2-methylindazole-4-carbonitrile], the IC50 came out at 12.8 nM on GST-tagged SIK3, 8.6 nM against GST-tagged SIK2 and 9 nM on GST-tagged SIK1.

Turning to `CCCn1cc(-c2cc(C#N)c3c(-c4cc(OC)c5c(c4)C(C)(C)CNC5=O)n(C)nc3c2)cn1` [Example 140, 3-(8-methoxy-4,4-dimethyl-1-oxo-2,3-dihydroisoquinolin-6-yl)-2-methyl-6-(1-propylpyrazol-4-yl)indazol-4-carbonitrile], the IC50 on GST-tagged SIK3 worked out at 10.3 nM; at GST-tagged SIK2, 12.3 nM; against GST-tagged SIK1, 7.8 nM.

Take `CCn1cc(-c2cc(C#N)c3c(-c4cc(OC)c(C(N)=O)c(OC(F)F)c4)n(C)nc3c2)cn1` [Example 141, 4-[4-cyano-6-(1-ethylpyrazol-4-yl)-2-methylindazol-3-yl]-2-(difluoromethoxy)-6-methoxybenzamide]: the 50% inhibitory concentration (IC50) against GST-tagged SIK3 came to 2.7 nM; against GST-tagged SIK2, 2 nM; against GST-tagged SIK1 it was 17.6 nM.

With `COc1cc(-c2c3c(C#N)cc(-c4cnn(CCC(C)(C)O)c4)cc3nn2C)cc(OC(F)F)c1C(N)=O` [Example 142], the values for the IC50 against GST-tagged SIK3, on GST-tagged SIK2 and against GST-tagged SIK1 were 2.7 nM, 1.9 nM and 16.2 nM, respectively.

`COCCn1cc(-c2cc(C#N)c3c(-c4cc(OC)c5c(c4)C(C)(C)CNC5=O)n(C)nc3c2)cn1` [Example 143, 3-(8-methoxy-4,4-dimethyl-1-oxo-2,3-dihydroisoquinolin-6-yl)-6-[1-(2-methoxyethyl)pyrazol-4-yl]-2-methylindazole-4-carbonitrile]: the IC50 at GST-tagged SIK3 worked out at 8.6 nM; at GST-tagged SIK2 it was 2.2 nM; on GST-tagged SIK1, 10.5 nM.

Consider `COc1cc(-c2c3c(C#N)cc(-c4cnn(C[C@H](C)O)c4)cc3nn2C)cc2c1C(=O)NCC2(C)C` [Example 144, 6-[1-[(2S)-2-hydroxypropyl]pyrazol-4-yl]-3-(8-methoxy-4,4-dimethyl-1-oxo-2,3-dihydroisoquinolin-6-yl)-2-methylindazole-4-carbonitrile], for which the half-maximal inhibitory concentration (IC50) against GST-tagged SIK3 stood at 7.8 nM; against GST-tagged SIK2 it was 3.7 nM; at GST-tagged SIK1, 10.1 nM.

`COc1cc(-c2c3c(OCCO)cc(-c4cnn(C)c4)cc3nn2C)cc(OC(F)F)c1C(N)=O` [Example 145, 2-(difluoromethoxy)-4-[4-(2-hydroxyethoxy)-2-methyl-6-(1-methylpyrazol-4-yl)indazol-3-yl]-6-methoxybenzamide]: the half-inhibitory concentration (IC50) was found to be 19.1 nM at GST-tagged SIK3, 1.8 nM on GST-tagged SIK2 and 10.3 nM on GST-tagged SIK1.

As for `COc1cc(-c2c3c(C#N)cc(-c4cnn(CC(F)(F)F)c4)cc3nn2C)cc2c1C(=O)NCC2(C)C` [Example 146, 3-(8-methoxy-4,4-dimethyl-1-oxo-2,3-dihydroisoquinolin-6-yl)-2-methyl-6-[1-(2,2,2-trifluoroethyl)pyrazol-4-yl]indazole-4-carbonitrile], the IC50 against GST-tagged SIK3 was determined as 7.8 nM; at GST-tagged SIK2 it was 3.6 nM; against GST-tagged SIK1, 12.6 nM.

As for `COc1cc(-c2c3c(C#N)cc(-c4cn[nH]c4)cc3nn2C)cc2c1C(=O)NCC2(C)C` [Example 147, 3-(8-methoxy-4,4-dimethyl-1-oxo-2,3-dihydroisoquinolin-6-yl)-2-methyl-6-(1H-pyrazol-4-yl)indazol-4-carbonitrile], the IC50 at GST-tagged SIK3 is 13.4 nM; at GST-tagged SIK2 it was 3.2 nM; against GST-tagged SIK1 it was 6.3 nM.

As to `COc1cc(-c2c3c(C#N)cc(-c4cn[nH]c4)cc3nn2C)cc(OC(F)F)c1C(=O)N[C@@H]1CC1(F)F` [Example 148, 4-[4-cyano-2-methyl-6-(1H-pyrazol-4-yl)indazol-3-yl]-N-[(1R)-2,2-difluorocyclopropyl]-2-(difluoromethoxy)-6-methoxybenzamide], the IC50 on GST-tagged SIK3 is 1.1 nM; against GST-tagged SIK2, 1.3 nM; against GST-tagged SIK1 it was 6 nM.

With `COc1cc(-c2c3c(C#N)cc(-c4cc[nH]n4)cc3nn2C)cc(OC(F)F)c1C(=O)N[C@@H]1CC1(F)F` [Example 149, 4-[4-cyano-2-methyl-6-(1H-pyrazol-3-yl)indazol-3-yl]-N-[(1R)-2,2-difluorocyclopropyl]-2-(difluoromethoxy)-6-methoxybenzamide], the IC50 on GST-tagged SIK3 was determined as 1.6 nM; against GST-tagged SIK2, 1.3 nM; against GST-tagged SIK1 it was 10.4 nM.

As to `COc1cc(-c2c3c(C(F)F)cc(-c4cn[nH]c4)cc3nn2C)cc(OC(F)F)c1C(=O)N[C@@H]1CC1(F)F` [Example 150, N-[(1R)-2,2-difluorocyclopropyl]-2-(difluoromethoxy)-4-[4-(difluoromethyl)-2-methyl-6-(1H-pyrazol-4-yl)indazol-3-yl]-6-methoxybenzamide], the IC50 against GST-tagged SIK3 was 1.3 nM; at GST-tagged SIK2, 2.4 nM; against GST-tagged SIK1, 10.2 nM.

Turning to `COCCCn1cc(-c2cc(C#N)c3c(-c4cc(OC)c5c(c4)C(C)(C)CNC5=O)n(C)nc3c2)cn1` [Example 151, 3-(8-methoxy-4,4-dimethyl-1-oxo-2,3-dihydroisoquinolin-6-yl)-6-[1-(3-methoxypropyl)pyrazol-4-yl]-2-methylindazole-4-carbonitrile], the half-inhibitory concentration (IC50) against GST-tagged SIK3 came out at 14.2 nM; against GST-tagged SIK2 it was 3.5 nM; on GST-tagged SIK1 it was 9.8 nM.

In the case of `CCOCCn1cc(-c2cc(C#N)c3c(-c4cc(OC)c5c(c4)C(C)(C)CNC5=O)n(C)nc3c2)cn1` [Example 152, 6-[1-(2-ethoxyethyl)pyrazol-4-yl]-3-(8-methoxy-4,4-dimethyl-1-oxo-2,3-dihydroisoquinolin-6-yl)-2-methylindazole-4-carbonitrile], the values for the IC50 on GST-tagged SIK3, on GST-tagged SIK2 and against GST-tagged SIK1 were 14.4 nM, 3.4 nM and 7.2 nM, respectively.

With `COc1cc(-c2c3c(C#N)cc(-c4cnn(C[C@@H](C)O)c4)cc3nn2C)cc(OC(F)F)c1C(=O)N[C@@H]1CC1(F)F` [Example 153, 4-[4-cyano-6-[1-[(2R)-2-hydroxypropyl]pyrazol-4-yl]-2-methylindazol-3-yl]-N-[(1R)-2,2-difluorocyclopropyl]-2-(difluoromethoxy)-6-methoxybenzamide], the IC50 amounted to 2.7 nM on GST-tagged SIK3, 1.8 nM on GST-tagged SIK2 and 8.5 nM on GST-tagged SIK1.

For `COCCn1cc(-c2cc(OC(F)F)c3c(-c4cc(OC)c(C(N)=O)c(OC(F)F)c4)n(C)nc3c2)cn1` [Example 154, 2-(difluoromethoxy)-4-[4-(difluoromethoxy)-6-[1-(2-methoxyethyl)pyrazol-4-yl]-2-methylindazol-3-yl]-6-methoxybenzamide], the IC50 was found to be 9.5 nM against GST-tagged SIK3, 1.2 nM on GST-tagged SIK2 and 7.6 nM on GST-tagged SIK1.

The record behind these values is patent publication US20260062387A1, “SALT-INDUCIBLE KINASE INHIBITOR COMPOUND AND PHARMACEUTICAL COMPOSITION INCLUDING THE SAME” (MITSUBISHI TANABE PHARMA CORPORATION, priority 2023, published 2026).
